Reference: US20120101110A1, “Diaza-spiro[5.5]undecanes” (priority 2010, published 2012)

How the values were obtained:
human orexin 2 receptors [1] = target: T1, human orexin 2 receptors (Homo sapiens, UniProt O43614); assay: Calcium accumulation in cells (FLIPR), hOx2R; assay type: cell-based; conditions: cells expressing human orexin 2 receptor; inhibition of orexin A-induced calcium accumulation; Cheng and Prusoff correction
T1 sequence (O43614 1-444): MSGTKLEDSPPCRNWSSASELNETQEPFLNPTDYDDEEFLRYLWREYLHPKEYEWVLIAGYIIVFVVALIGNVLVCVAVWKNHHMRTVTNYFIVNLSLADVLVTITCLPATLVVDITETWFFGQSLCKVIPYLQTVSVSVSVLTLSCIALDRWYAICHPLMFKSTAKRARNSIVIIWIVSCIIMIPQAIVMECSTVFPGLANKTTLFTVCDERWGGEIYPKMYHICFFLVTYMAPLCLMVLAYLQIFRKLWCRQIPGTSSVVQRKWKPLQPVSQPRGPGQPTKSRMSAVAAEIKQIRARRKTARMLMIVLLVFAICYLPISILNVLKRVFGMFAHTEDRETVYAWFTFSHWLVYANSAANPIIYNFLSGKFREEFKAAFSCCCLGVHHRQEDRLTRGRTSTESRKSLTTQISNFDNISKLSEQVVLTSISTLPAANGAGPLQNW
Description: Cells expressing human orexin 1 or human orexin 2 receptors, were seeded at 8,000 cells/well in 384 well black-walled clear bottom, poly-D-lysine coated plates. After 24 h, the medium was removed and cells were washed once with phosphate buffered saline and serum-deprived overnight in assay buffer (130 mM NaCl, 5.4 mM KCl, 1.8 mM CaCl2, 0.8 mM MgSO4, 0.9 mM NaH2PO4, 25 mM glucose, 20 mM HEPES, pH 7.4) containing bovine serum albumin (1% w/v).
On the day of the experiment, the cells seeded in black plates were treated with assay buffer containing the Ca^2+sensitive fluorescent dye Fluo-4-AM (2 μM), and probenecid (0.1 mM). After 1 h plates were washed twice with, and resuspended in, assay buffer containing probenecid (0.1 mM) using a multi plate washer. […] Fluorescence measurements were then continued every 1 S for 120 S followed by every 4 S for 240 S.
The measurements were typically made in two sequences:
Compounds of formula I were tested usually in a concentration range from 10^−9 M to 10^−5 M. In the second round, performed one hour later (to allow for equilibration), Orexin A was tested either in the absence (calibration curves, Orexin A agonist controls) or in the presence of compounds of formula I to determine antagonism.

human orexin 1 receptors [2] = target: T2, human orexin 1 receptors (Homo sapiens, UniProt O43613); assay: Calcium accumulation in cells (FLIPR), hOx1R; conditions: for inhibition at 10 µM: read-out: FLIPR hOx1R % inhibition value
T2 sequence (O43613 1-425): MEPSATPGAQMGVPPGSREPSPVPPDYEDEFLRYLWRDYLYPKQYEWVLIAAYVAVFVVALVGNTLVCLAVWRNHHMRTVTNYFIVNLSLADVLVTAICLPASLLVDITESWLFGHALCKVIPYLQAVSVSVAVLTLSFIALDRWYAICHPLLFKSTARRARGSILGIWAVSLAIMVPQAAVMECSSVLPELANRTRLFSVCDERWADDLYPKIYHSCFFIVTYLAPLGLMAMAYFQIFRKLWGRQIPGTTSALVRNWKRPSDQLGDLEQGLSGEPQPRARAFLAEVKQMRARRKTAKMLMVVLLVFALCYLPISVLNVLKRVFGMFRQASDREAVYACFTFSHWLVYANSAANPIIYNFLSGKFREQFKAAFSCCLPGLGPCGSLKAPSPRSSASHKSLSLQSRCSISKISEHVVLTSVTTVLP

human orexin 1 receptors [3] = target: T2, human orexin 1 receptors; assay: Radioligand binding assay ([3H]-SB649868 competition), hOx1R; conditions: competition with about 1 nM [3H]-SB649868; CHO or HEK cell membranes expressing human orexin 1 receptor
Description: (§1) The cell pellet was either stored at −80° C. or used directly. Before the experiments, cell membranes were re-suspended in binding assay buffer (10 mM HEPES, 0.5% (w/v) bovine serum albumin, pH 7.5) by homogenisation with a Polytron homogeniser at 50 Hz for 20 s. Cell membranes were also used as made available by commercial providers.
(§2) Bound radioactivity was measured, and data were analysed with the program XLFIT or Graphpad Prism. Protein concentration was determined according to the Bradford/BioRad Protein Assay Kit.
(§3) In competition experiments, cell homogenates (150 μl) were incubated in assay buffer (10 mM HEPES, pH 7.5, 0.5% (w/v) bovine serum albumin, 5 mM MgCl2, 1 mMCaCl2, and tween 0.05%) for 1 h at room temperature with about 1 nM of the radioligand [^3H]-SB649868, 66 Ci/mmole, 50 μl), and with various concentrations of compounds of the invention (50 μl) in triplicates; non-specific binding was determined in the presence of almorexant (10 μM). Reactions were terminated by vacuum filtration, 3 washes of ice cold wash buffer (Tris-HCl pH 7.4/10 mM, with NaCl 154 mM). Competition data is expressed in Table 2 as Kd [μM].

human orexin 2 receptors [4] = target: T1, human orexin 2 receptors; assay: Radioligand binding assay ([3H]-SB649868 competition), hOx2R; conditions: competition with about 1 nM [3H]-SB649868; CHO or HEK cell membranes expressing human orexin 2 receptor; read-out: binding hOx2R Kd
Description: as §1, §2
as §3, with “μM).” for “μM). Reactions were terminated by vacuum filtration, 3 washes of ice cold wash buffer (Tris-HCl pH 7.4/10 mM, with NaCl 154 mM). Competition data is expressed in Table 2 as Kd [μM].”

For `N#Cc1cccc(N2CCC3(CCCN(Cc4cccc(-c5ncccn5)c4)C3=O)CC2)n1` [Example 34, 6-(1-oxo-2-(3-(pyrimidin-2-yl)benzyl)-2,9-diazaspiro[5.5]undecan-9-yl)picolinonitrile], the Ki (human orexin 2 receptors [1]) was 73 nM, the Ki (human orexin 1 receptors [2]) was 554 nM and the Kd (human orexin 1 receptors [3]) was 2290 nM. The Kd (human orexin 2 receptors [4]) was 674 nM.

For `N#Cc1ccnc(N2CCC3(CCCN(Cc4cccc(-c5ncccn5)c4)C3=O)CC2)c1` [Example 35, 2-(1-oxo-2-(3-(pyrimidin-2-yl)benzyl)-2,9-diazaspiro[5.5]undecan-9-yl)isonicotinonitrile], the Ki (human orexin 2 receptors [1]) was 45 nM, the Ki (human orexin 1 receptors [2]) was 868 nM and the Kd (human orexin 1 receptors [3]) was 394 nM. The Kd (human orexin 2 receptors [4]) was 98 nM.

`Cc1cc(C)nc(N2CCC3(CCCN(Cc4cccc(-c5ncc(C)o5)c4)C3=O)CC2)n1` [Example 36, 9-(4,6-dimethylpyrimidin-2-yl)-2-(3-(5-methyloxazol-2-yl)benzyl)-2,9-diazaspiro[5.5]undecan-1-one] showed a Ki (human orexin 2 receptors [1]) of 38 nM, a Ki (human orexin 1 receptors [2]) of 714 nM and a Kd (human orexin 1 receptors [3]) of 431 nM. It also gave a Kd (human orexin 2 receptors [4]) of 89 nM.

With `Cc1cc(C#N)nc(N2CCC3(CCCN(Cc4cccc(-c5ncc(C)o5)c4)C3=O)CC2)n1` [Example 37, 6-methyl-2-(2-(3-(5-methyloxazol-2-yl)benzyl)-1-oxo-2,9-diazaspiro[5.5]undecan-9-yl)pyrimidine-4-carbonitrile] the Ki (human orexin 2 receptors [1]) was 79 nM, the Ki (human orexin 1 receptors [2]) was 1890 nM and the Kd (human orexin 1 receptors [3]) was > 10000 nM. The Kd (human orexin 2 receptors [4]) was 1160 nM.

Work on `Cc1ccnc(N2CCC3(CCCN(Cc4cccc(-c5ncc(C)o5)c4)C3=O)CC2)n1` [Example 38, 2-(3-(5-methyloxazol-2-yl)benzyl)-9-(4-methylpyrimidin-2-yl)-2,9-diazaspiro[5.5]undecan-1-one] yielded a Ki (human orexin 2 receptors [1]) of 43 nM, a Ki (human orexin 1 receptors [2]) of 924 nM and a Kd (human orexin 1 receptors [3]) of 1190 nM. It also gave a Kd (human orexin 2 receptors [4]) of 177 nM.

In the case of `Cc1cnc(-c2cccc(CN3CCCC4(CCN(c5cccc(C#N)n5)CC4)C3=O)c2)o1` [Example 39, 6-(2-(3-(5-methyloxazol-2-yl)benzyl)-1-oxo-2,9-diazaspiro[5.5]undecan-9-yl)picolinonitrile], the Ki (human orexin 2 receptors [1]) is reported as 29 nM, the Ki (human orexin 1 receptors [2]) is reported as 533 nM and the Kd (human orexin 1 receptors [3]) is reported as 1440 nM. For the same compound, the Kd (human orexin 2 receptors [4]) was 367 nM.

For `Cc1cnc(-c2cccc(CN3CCCC4(CCN(c5cc(C#N)ccn5)CC4)C3=O)c2)o1` [Example 40, 2-(2-(3-(5-methyloxazol-2-yl)benzyl)-1-oxo-2,9-diazaspiro[5.5]undecan-9-yl)isonicotinonitrile], the Ki (human orexin 2 receptors [1]) was 19 nM, the Ki (human orexin 1 receptors [2]) was 241 nM and the Kd (human orexin 1 receptors [3]) was 332 nM. The Kd (human orexin 2 receptors [4]) was 37 nM.

Work on `Cc1cncc(N2CCC3(CCCC(=O)N3Cc3cccc4[nH]ccc34)CC2)n1` [Example 41, 1-((1H-indol-4-yl)methyl)-9-(6-methylpyrazin-2-yl)-1,9-diazaspiro[5.5]undecan-2-one] yielded a Ki (human orexin 2 receptors [1]) of 15 nM, a Ki (human orexin 1 receptors [2]) of 1640 nM and a Kd (human orexin 1 receptors [3]) of 2820 nM. It also gave a Kd (human orexin 2 receptors [4]) of 85 nM.

`Cc1ccnc(N2CCC3(CCCC(=O)N3Cc3cccc4[nH]ccc34)CC2)n1` [Example 42, 1-((1H-indol-4-yl)methyl)-9-(4-methylpyrimidin-2-yl)-1,9-diazaspiro[5.5]undecan-2-one] was tested, and the Ki (human orexin 2 receptors [1]) was 26 nM, the inhibition at 10 µM (human orexin 1 receptors [2]) was 34% and the Kd (human orexin 1 receptors [3]) was 5230 nM. It also gave a Kd (human orexin 2 receptors [4]) of 140 nM.

Compound `COc1cncc(N2CCC3(CCCC(=O)N3Cc3cccc4[nH]ccc34)CC2)n1` [Example 43, 1-((1H-indol-4-yl)methyl)-9-(6-methoxypyrazin-2-yl)-1,9-diazaspiro[5.5]undecan-2-one] has a Ki (human orexin 2 receptors [1]) of 17 nM, a Ki (human orexin 1 receptors [2]) of 729 nM and a Kd (human orexin 1 receptors [3]) of 1860 nM. For the same compound, the Kd (human orexin 2 receptors [4]) was 612 nM.

For `O=C1CCCC2(CCN(c3cncc(Cl)n3)CC2)N1Cc1cccc2[nH]ccc12` [Example 44, 1-((1H-indol-4-yl)methyl)-9-(6-chloropyrazin-2-yl)-1,9-diazaspiro[5.5]undecan-2-one], the Ki (human orexin 2 receptors [1]) was 12 nM, the Ki (human orexin 1 receptors [2]) was 1570 nM and the Kd (human orexin 1 receptors [3]) was 5740 nM. For the same compound, the Kd (human orexin 2 receptors [4]) was 238 nM.

`Cc1cc(C)nc(N2CCC3(CCCN(Cc4n[nH]c5ccccc45)C3=O)CC2)n1` [Example 45, 2-((1H-indazol-3-yl)methyl)-9-(4,6-dimethylpyrimidin-2-yl)-2,9-diazaspiro[5.5]undecan-1-one] gave a Ki (human orexin 2 receptors [1]) of 10 nM, a Ki (human orexin 1 receptors [2]) of 521 nM and a Kd (human orexin 1 receptors [3]) of 1060 nM. For the same compound, the Kd (human orexin 2 receptors [4]) was 64 nM.

With `O=C1N(Cc2c[nH]c3ccccc23)CCCC12CCN(c1nccc(Cl)n1)CC2` [Example 51, 2-((1H-indol-3-yl)methyl)-9-(4-chloropyrimidin-2-yl)-2,9-diazaspiro[5.5]undecan-1-one] the Ki (human orexin 2 receptors [1]) was 84 nM, the inhibition at 10 µM (human orexin 1 receptors [2]) was 44% and the Kd (human orexin 1 receptors [3]) was 4820 nM. For the same compound, the Kd (human orexin 2 receptors [4]) was 700 nM.

`COc1cccc(N2CCC3(CCCN(Cc4c[nH]c5ccccc45)C3=O)CC2)n1` [Example 65, 2-((1H-indol-3-yl)methyl)-9-(6-methoxypyridin-2-yl)-2,9-diazaspiro[5.5]undecan-1-one] was tested, and the Ki (human orexin 2 receptors [1]) was 66 nM, the Ki (human orexin 1 receptors [2]) was 699 nM and the Kd (human orexin 1 receptors [3]) was > 10000 nM. For the same compound, the Kd (human orexin 2 receptors [4]) was 588 nM.

In the case of `Cc1ccnc(N2CCC3(CCCN(Cc4c[nH]c5ccccc45)C3=O)CC2)c1` [Example 67, 2-((1H-indol-3-yl)methyl)-9-(4-methylpyridin-2-yl)-2,9-diazaspiro[5.5]undecan-1-one], the Ki (human orexin 2 receptors [1]) is reported as 134 nM, the inhibition at 10 µM (human orexin 1 receptors [2]) is reported as < 10% and the Kd (human orexin 1 receptors [3]) is reported as 3590 nM. For the same compound, the Kd (human orexin 2 receptors [4]) was 315 nM.

With `Cc1cc(C)nc(N2CCC3(CCCN(Cc4cccc(-c5ncccn5)c4)C3=O)CC2)c1` [Example 74, 9-(4,6-dimethylpyridin-2-yl)-2-(3-(pyrimidin-2-yl)benzyl)-2,9-diazaspiro[5.5]undecan-1-one] the Ki (human orexin 2 receptors [1]) was 160 nM, the Ki (human orexin 1 receptors [2]) was 2150 nM and the Kd (human orexin 1 receptors [3]) was > 10000 nM. The Kd (human orexin 2 receptors [4]) was 338 nM.

With `Cc1cc(C#N)nc(N2CCC3(CCCN(Cc4c[nH]c5ccccc45)C3=O)CC2)n1` [Example 75, 2-(2-((1H-indol-3-yl)methyl)-1-oxo-2,9-diazaspiro[5.5]undecan-9-yl)-6-methylpyrimidine-4-carbonitrile] the Ki (human orexin 2 receptors [1]) was 7.2 nM, the Ki (human orexin 1 receptors [2]) was 1480 nM and the Kd (human orexin 1 receptors [3]) was > 10000 nM. For the same compound, the Kd (human orexin 2 receptors [4]) was 466 nM.

`Cc1cc(C#N)cc(N2CCC3(CCCN(Cc4c[nH]c5ccccc45)C3=O)CC2)n1` [Example 78, 2-(2-((1H-indol-3-yl)methyl)-1-oxo-2,9-diazaspiro[5.5]undecan-9-yl)-6-methylisonicotinonitrile] was tested, and the Ki (human orexin 2 receptors [1]) was 3 nM, the Ki (human orexin 1 receptors [2]) was 481 nM and the Kd (human orexin 1 receptors [3]) was 3420 nM. The Kd (human orexin 2 receptors [4]) was 216 nM.

In the case of `N#Cc1ccnc(N2CCC3(CCCN(Cc4c[nH]c5ccccc45)C3=O)CC2)n1` [Example 80, 2-(2-((1H-indol-3-yl)methyl)-1-oxo-2,9-diazaspiro[5.5]undecan-9-yl)pyrimidine-4-carbonitrile], the Ki (human orexin 2 receptors [1]) is reported as 50 nM, the inhibition at 10 µM (human orexin 1 receptors [2]) is reported as 41% and the Kd (human orexin 1 receptors [3]) is reported as 7760 nM. The Kd (human orexin 2 receptors [4]) was 1100 nM.

With `Cc1cnc(N2CCC3(CCCN(Cc4c[nH]c5ccccc45)C3=O)CC2)nc1C` [Example 81, 2-((1H-indol-3-yl)methyl)-9-(4,5-dimethylpyrimidin-2-yl)-2,9-diazaspiro[5.5]undecan-1-one] the Ki (human orexin 2 receptors [1]) was 45 nM, the Ki (human orexin 1 receptors [2]) was 2030 nM and the Kd (human orexin 1 receptors [3]) was 798 nM. It also gave a Kd (human orexin 2 receptors [4]) of 29 nM.

`N#Cc1cccc(N2CCC3(CCCN(Cc4c[nH]c5ccccc45)C3=O)CC2)n1` [Example 83, 6-(2-((1H-indol-3-yl)methyl)-1-oxo-2,9-diazaspiro[5.5]undecan-9-yl)picolinonitrile] was tested, and the Ki (human orexin 2 receptors [1]) was 13 nM, the Ki (human orexin 1 receptors [2]) was 1520 nM and the Kd (human orexin 1 receptors [3]) was > 10000 nM. It also gave a Kd (human orexin 2 receptors [4]) of 2110 nM.
